Converted amounts (≈) assume the structure as drawn. Values belong to the molecule of their own block, whether it stands above or below them.
How the values were obtained:
[1] = system: Mannheimia haemolytica, 3 isolates; test: MIC against Mannheimia haemolytica isolates; type: cell-based; conditions: Mannheimia haemolytica, 3ISOLATES, 3 Mannheimia haemolytica isolates; broth dilution method; read-out: Range of minimum inhibitory concentrations (MIC)
Method: (§1) Minimal inhibitory concentrations (MICs) were determined against the most prevalent pathogens in cattle (Mannheimia Haemolytica, 3 isolates) and swine (A. pleuropneumoniae, 6 isolates). In addition the activity of several compounds was tested against two bacterial species, i.e. Mannheimia haemolytica and Actinobacillus pleuropneumoniae, which are considered as the most important bacterial respiratory pathogens in cattle and swine, respectively.

[2] = system: Actinobacillus pleuropneumoniae, 6 isolates; test: MIC against Actinobacillus pleuropneumoniae isolates; type: cell-based; conditions: 6ISOLATES; 6 Actinobacillus pleuropneumoniae isolates; broth dilution method; read-out: Range of minimum inhibitory concentrations (MIC)
Method: as §1

[3] = system: M. hemolytica KB345 (Tilmicosin-sensitivity strain); test: Paper disc assay, M. hemolytica KB345; type: cell-based, Mannhemia hemolytica; conditions: Table 4
Method: (1) Antibacterial activities against Mannheimia and Pasteurella were determined by the following steps: • 1) M. hemolytica KB345 (Tilmicosin-sensitivity strain) and M. hemolytica KB346 (Tilmicosin-low sensitivity strain) were provided. KB 345 strain stored at −80° C. was seeded to BHIB agar medium (10 mL) by using Microbank beads (Pro-Lab) and platinum nail. After statically incubating the KB 345 strain for 24 hours at 37° C., it was seeded to maintaining slant BHIB agar medium (7 mL) by using platinum loop, further statically incubated for 24 hours at 37° C. to obtain slant. One platinum loop of KB 345 strain stored at the slant was inoculated into a large test tube charged with BHIB liquid medium (10 mL) and then incubated for 24 hours at 37° C. with shaking. • 2) A paper disc (ADVANTEC, Φ:6 mm) was impregnated with a solution of test compound and dried under reduced pressure. • 3) To a melted BHIB agar medium was inoculated 1% of the broth obtained from step 1) above to prepare a test plate. After the medium set, the paper disc prepared in step 2) above was put on the plate and it was incubated at 37° C. • 4) After one day, the inhibition zone diameter and clarity (A to E) were determined. For KB346 strain, the same procedures were repeated.

[4] = system: Micrococcus luteus ATCC9341; test: Paper disc assay, Micrococcus luteus; type: cell-based; conditions: column 1
Method: (§2) (2) Antibacterial activities against other bacteria were determined with Micrococcus luteus ATCC9341 (1), Bacillus subtilis […] (s), Escherichia coli NIHJ (c), Xanthomonas campestris KB88 (X), Mucor racemosus IFO 4581 (Mu) and Candida albicans ATCC 64548 (Ca).
(§3) Bacillus subtilis ATCC6633 was incubated in Davis synthetic medium and then the seed broth was combined with the medium in the ratio of 1:99 to obtain a test plate. Micrococcus luteus ATCC9341, Escherichia coli NIHJ and Xanthomonas campestris KB88 were respectively incubated in Nutrient agar medium and inoculated at 0.2%, 0.5% and 1.0%. Mucor racemosus IFO 4581 and Candida albicans ATCC 64548 were respectively incubated in GY agar medium and then inoculated at 0.3% and 0.2%.
(§4) A paper disc (ADVANTEC, Φ:6 mm) was impregnated with a solution of test compound and dried under reduced pressure. The paper disc was put on the test plate and it was incubated for 24 hours at 37° C. After incubation, the inhibition zone diameter and clarity (A to E) were determined.

[5] = system: Bacillus subtilis ATCC6633; test: Paper disc assay, Bacillus subtilis; type: cell-based; conditions: S
Method: as §2, §3, §4

[6] = system: Xanthomonas campestris KB88; test: Paper disc assay, Xanthomonas campestris; type: cell-based; conditions: X
Method: as §2, §3, §4

MIC [2]: 8 µg/mL (≈ 10.9 µM)
Structure (SMILES): CC[C@H]1OC(=O)C[C@@H](O)[C@H](C)[C@@H](O[C@@H]2OC(C)[C@@H](O)C(N(C)C)C2O)[C@@H](CCn2cc(-c3ccsc3)nn2)C[C@@H](C)C(=O)/C=C/C(C)=C/[C@@H]1CO (stereo partly drawn) [YT726]
MIC [1]: 8 µg/mL (≈ 10.9 µM)

MIC [2]: 2 µg/mL (≈ 2.31 µM)
Structure (SMILES): CC[C@H]1OC(=O)C[C@@H](O)[C@H](C)[C@@H](O[C@@H]2OC(C)[C@@H](O)C(N(C)C)C2O)[C@@H](CCN(CCn2cc(-c3ccsc3)nn2)Cc2ccccc2)C[C@@H](C)C(=O)/C=C/C(C)=C/[C@@H]1CO (stereo partly drawn) [YT674]
MIC [1]: 2 to 4 µg/mL (≈ 2.31 to 4.62 µM)

MIC [2]: 8 µg/mL (≈ 8.11 µM)
Structure (SMILES): CC[C@H]1OC(=O)C[C@@H](O)[C@H](C)[C@@H](O[C@@H]2OC(C)[C@@H](O)C(N(C)C)C2O)[C@@H](CCN(CCn2cc(-c3ccccc3)nn2)Cc2ccc(I)cc2)C[C@@H](C)C(=O)/C=C/C(C)=C/[C@@H]1CO (stereo partly drawn) [YT700]
MIC [1]: 4 to 8 µg/mL (≈ 4.06 to 8.11 µM)

Structure (SMILES): CCC1OC(=O)CC(O)C(C)C(OC2OC(C)C(O)C(N(C)C)C2O)C(CCn2cc(-c3ccccc3)nn2)CC(C)C(=O)C=CC(C)=CC1CN=[N+]=[N-] (stereo not drawn) [YT114, 20-(4-phenyl-1H-1,2,3-triazol-1-yl)-20-deoxo-23-azido-23-deoxy-5-O-mycaminosyltylonolide]
Inhibition zone ([3]; 3 mg/6 mm disk): 11.5 mm
Inhibition zone ([3]; 10 mg/6 mm disk): 17.5 mm
Inhibition zone ([3]; 30 mg/6 mm disk): 21.0 mm
Inhibition zone ([3]; 100 mg/6 mm disk): 21.0 mm

MIC [2]: 2 to 8 µg/mL (≈ 2.32 to 9.29 µM)
Structure (SMILES): CC[C@H]1OC(=O)C[C@@H](O)[C@H](C)[C@@H](O[C@@H]2OC(C)[C@@H](O)C(N(C)C)C2O)[C@@H](CCN(CCn2cc(-c3cccnc3)nn2)Cc2ccccc2)C[C@@H](C)C(=O)/C=C/C(C)=C/[C@@H]1CO (stereo partly drawn) [YT664]
MIC [1]: 4 to 8 µg/mL (≈ 4.65 to 9.29 µM)

Structure (SMILES): CC[C@H]1OC(=O)C[C@@H](O)[C@H](C)[C@@H](O[C@@H]2OC(C)[C@@H](O)C(N(C)C)C2O)[C@@H](CCn2cc(-c3ccc(N(C)C)cc3)nn2)C[C@@H](C)C(=O)/C=C/C(C)=C/[C@@H]1CO[C@@H]1OC(C)[C@@H](O)C(OC)C1OC (stereo partly drawn) [YT29, 20-(4-(4-dimethylaminophenyl)-1H-1,2,3-triazol-1-yl)-20-deoxodesmycosin]
Inhibition zone ([4]; 0.1 mg/6 mm disc): 11 mm
Inhibition zone ([4]; 1 mg/6 mm disc): 19.5 mm
Inhibition zone ([4]; 10 mg/6 mm disc): 25.5 mm
Inhibition zone ([5]; 0.1 mg/6 mm disc): 7 mm
Inhibition zone ([5]; 1 mg/6 mm disc): 10 mm
Inhibition zone ([5]; 10 mg/6 mm disc): 15 mm
Inhibition zone ([6]; 0.1 mg/6 mm disc): 7 mm
Inhibition zone ([6]; 1 mg/6 mm disc): 15 mm
Inhibition zone ([6]; 10 mg/6 mm disc): 24 mm

MIC [2]: 4 µg/mL (≈ 5.15 µM)
Structure (SMILES): CC[C@H]1OC(=O)C[C@@H](O)[C@H](C)[C@@H](O[C@@H]2OC(C)[C@@H](O)C(N(C)C)C2O)[C@@H](CCNCCn2cc(-c3ccsc3)nn2)C[C@@H](C)C(=O)/C=C/C(C)=C/[C@@H]1CO (stereo partly drawn) [YT717]
MIC [1]: 2 to 8 µg/mL (≈ 2.58 to 10.3 µM)

MIC [2]: 4 µg/mL (≈ 4.87 µM)
Structure (SMILES): CC[C@H]1OC(=O)C[C@@H](O)[C@H](C)[C@@H](O[C@@H]2OC(C)[C@@H](O)C(N(C)C)C2O)[C@@H](CCN(C)Cc2cn(-c3ccc4ncccc4c3)nn2)C[C@@H](C)C(=O)/C=C/C(C)=C/[C@@H]1CO (stereo partly drawn) [YT710]
MIC [1]: 2 to 4 µg/mL (≈ 2.44 to 4.87 µM)

Structure (SMILES): CC[C@H]1OC(=O)C[C@@H](O)[C@H](C)[C@@H](O[C@@H]2OC(C)[C@@H](O)C(N(C)C)C2O)[C@@H](CCn2cc(CCCCCl)nn2)C[C@@H](C)C(=O)/C=C/C(C)=C/[C@@H]1CO[C@@H]1OC(C)[C@@H](O)C(OC)C1OC (stereo partly drawn) [YT19, 20-(4-(4-chlorobutyl)-1H-1,2,3-triazol-1-yl)-20-deoxodesmycosin]
Inhibition zone ([4]; 0.1 mg/6 mm disc): 13 mm
Inhibition zone ([4]; 1 mg/6 mm disc): 19 mm
Inhibition zone ([4]; 10 mg/6 mm disc): 26 mm
Inhibition zone ([5]; 0.1 mg/6 mm disc): 7 mm
Inhibition zone ([5]; 1 mg/6 mm disc): 10.5 mm
Inhibition zone ([5]; 10 mg/6 mm disc): 15 mm
Inhibition zone ([6]; 0.1 mg/6 mm disc): 7 mm
Inhibition zone ([6]; 1 mg/6 mm disc): 14.5 mm
Inhibition zone ([6]; 10 mg/6 mm disc): 23 mm

MIC [2]: 2 to 4 µg/mL (≈ 2.57 to 5.14 µM)
Structure (SMILES): CC[C@H]1OC(=O)C[C@@H](O)[C@H](C)[C@@H](O[C@@H]2OC(C)[C@@H](O)C(N(C)C)C2O)[C@@H](CCn2cc(-c3ccc4ccccc4n3)nn2)C[C@@H](C)C(=O)/C=C/C(C)=C/[C@@H]1CO (stereo partly drawn) [YT734]
MIC [1]: 2 to 4 µg/mL (≈ 2.57 to 5.14 µM)
